Laboratory results as given in PMC11378297, “Discovery and Profiling of New Multimodal Phenylglycinamide Derivatives as Potent Antiseizure and Antinociceptive Drug Candidates” (ACS Chemical Neuroscience, 2024).
Like-named read-outs stand apart in the source and are kept apart here.

Columns and labels:
[1] = system: maximal electroshock (MES) seizures, mice; assay: maximal electroshock (MES) seizure test; assay type: in vivo; conditions: Mus musculus, ip; 100 mg/kg i.p., 0.5 h, mice; read-out: MES: number of mice protected/number of mice tested (converted)
[2] = system: 6 Hz (32 mA) seizures, mice; assay: 6 Hz (32 mA) psychomotor seizure test; assay type: in vivo; conditions: Mus musculus, ip, 100 mg/kg i.p., 0.5 h;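 further: compounds given as one i.p. dose suspended in 1% aqueous Tween 80, with the 6 Hz (32 mA) model considered to reflect focal epilepsy in humans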
body temperature, mice = assay: capsaicin-induced hypothermia test / rectal temperature; assay type: in vivo, mouse
Method: In this study, we used the capsaicin-induced hypothermia model in mice to evaluate the effect of eutomers (R)-31, (R)-32, and (R)-33 on body temperature and to provide more data related to their on-target activity (i.e., antagonism of TRPV1) (Figure S5A–D). Capsaicin given i.p. at a dose of 5 mg/kg produced a marked decrease in rectal temperature at 15 min post injection (p < 0.0001). The temperature returned to normal values within 30–60 min after capsaicin injection. […] None of the tested compounds reversed the capsaicin-induced hypothermia.
The changes in body temperature in the capsaicin-induced hypothermia model were evaluated as described previously. Eutomers (R)-31, (R)-32, and (R)-33 were suspended in a 1% Tween 80 and administered i.p. 15 min before injection of capsaicin (5 mg/kg, i.p.). The corresponding vehicles (1% DMSO or 1% Tween 80) were given to the control animals. Using an electronic thermometer (ThermoWorks, Alpine, Utah, USA), changes in the mouse’s rectal temperature were recorded by inserting the rectal probe approximately 2 cm into the mouse’s rectum. After −15, 0, 15, 30, 60, 90, 120, and 180 min, the measurements were collected. Subsequently, the variations in rectal temperature between the baseline ([…] for the groups receiving compounds and BCTC in conjunction with the vehicle, or […] for the groups receiving the vehicle, compounds, and BCTC in combination with the capsaicin) and the corresponding time point ΔT (°C) were computed and examined.
Figure S5. Acute effects of BCTC (A), (R)-31 (B), (R)-32 (C), and (R)-33 (D) on rectal temperature in the capsaicin-induced test in mice. Capsaicin (CPS) or vehicle (1% DMSO) were injected i.p. at 0 min, as indicated by the arrows.
BCTC, (R)-31, (R)-32, and (R)-33 were suspended in 1% Tween 80 and administered i.p. 15 min before CPS or vehicle injection. The temperature was measured at -15, 0, 15, 30, 60, 90, 120, and 180 min. Since body temperature returned to control values 60 min after CPS injection, subsequent measurements are not shown.
Data are presented as the mean differences (ΔT) in rectal temperature from 0 to -15 min (time point 0 min), from 15 to 0 min (time point 15 min), from 30 to 0 min (time point 30 min), and from 60 to 0 min (time point 60 min); n = 6–8 animals/group. Statistical significance was evaluated using one-way ANOVA with Tukey’s post hoc test: […]
(1 picture or pasted object on this page, not shown here)

TRPV1 (VR1) (h) = target: T1, TRPV1 (VR1) (h) (Homo sapiens, UniProt Q8NER1); assay: TRPV1 (VR1) (h) (antagonist effect); assay type: cell-based; conditions: 100 µM, human recombinant CHO cells; read-out: % Inhibition of control agonist response
T1 construct: host or cells: CHO cells
Method: Further in vitro functional studies confirmed TRPV1 antagonist activity for (R)-31–(R)-33.
Using previously described testing methodologies, binding/functional tests were conducted on a commercial basis at Eurofins Laboratories (Poitiers, France) and Eurofins Panlabs Discovery Services Taiwan, Ltd. (New Taipei City, Taiwan); see Table S9 for more information.
Table S9. Radioligand binding and functional assays. […]
TRPV1 (VR1) (h) (antagonist effect) […]
Assays were performed commercially in Eurofins Laboratories (Poitiers, France) or Eurofins Panlabs Discovery Services
Taiwan, Ltd. (New Taipei City, Taiwan).

[3] = PAMPA (Precoated PAMPA Plate System Gentest) passive permeability; assay type: in vitro ADME; conditions: passive blood–brain barrier permeability model
[4] = four mice, read-out: protection in the 6 Hz (32 mA) test
[5] = mice, read-out: 6 Hz (32 mA): number of mice protected/number of mice tested (converted)

T1 sequence (Q8NER1 whole entry): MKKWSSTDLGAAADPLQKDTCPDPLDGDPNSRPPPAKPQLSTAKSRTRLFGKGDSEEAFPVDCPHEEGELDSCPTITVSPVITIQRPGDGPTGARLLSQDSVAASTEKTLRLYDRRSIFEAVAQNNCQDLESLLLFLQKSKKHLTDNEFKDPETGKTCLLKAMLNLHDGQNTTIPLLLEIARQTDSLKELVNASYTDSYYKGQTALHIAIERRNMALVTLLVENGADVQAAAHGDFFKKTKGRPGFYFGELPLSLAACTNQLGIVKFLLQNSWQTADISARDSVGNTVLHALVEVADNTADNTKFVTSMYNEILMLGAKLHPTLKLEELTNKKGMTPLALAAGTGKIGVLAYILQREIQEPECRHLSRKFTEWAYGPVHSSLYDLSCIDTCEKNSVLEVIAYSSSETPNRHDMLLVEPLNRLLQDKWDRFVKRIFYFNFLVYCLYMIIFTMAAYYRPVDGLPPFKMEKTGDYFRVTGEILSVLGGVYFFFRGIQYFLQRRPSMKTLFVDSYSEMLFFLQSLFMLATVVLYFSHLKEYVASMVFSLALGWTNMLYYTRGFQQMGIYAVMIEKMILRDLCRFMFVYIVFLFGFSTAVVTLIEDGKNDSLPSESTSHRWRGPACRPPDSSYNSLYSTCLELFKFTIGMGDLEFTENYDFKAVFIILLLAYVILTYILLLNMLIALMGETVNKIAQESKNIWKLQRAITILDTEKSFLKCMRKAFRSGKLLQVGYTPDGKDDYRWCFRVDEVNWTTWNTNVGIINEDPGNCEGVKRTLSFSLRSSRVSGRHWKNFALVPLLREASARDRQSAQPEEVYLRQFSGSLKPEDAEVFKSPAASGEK

SMILES	melting point	inhibition at 100 µM (TRPV1 (VR1) (h))	responders at 100 mg/kg [1]	responders at 100 mg/kg [2, 4]	responders at 100 mg/kg [2, 5]	effect on capsaicin-induced hypothermia (body temperature, mice; 20 mg/kg with capsaicin 5 mg/kg i.p., p < 0.0001 at 15 and 30 min)	effect on body temperature, administered alone (body temperature, mice; 20 mg/kg, 15 min after injection, p < 0.05)	permeability coefficient (Pe) [3]
CC(=O)N[C@H](C(=O)N1CCN(c2cccc(OC(F)(F)F)c2)CC1)c1ccccc1 [(S)-32, (S)-N-(2-Oxo-1-phenyl-2-(4-(3-(trifluoromethoxy)phenyl)piperazin-1-yl)ethyl)acetamide]			25%	75%	75%			
CC(=O)N[C@H](C(=O)N1CCN(c2cccc(SC(F)(F)F)c2)CC1)c1ccccc1 [(S)-33, (S)-N-(2-Oxo-1-phenyl-2-(4-(3-((trifluoromethyl)thio)phenyl)piperazin-1-yl)ethyl)acetamide]			25%	75%	75%			
CC(C)(C)c1ccc(NC(=O)N2CCN(c3ncccc3Cl)CC2)cc1 [BCTC, reference compound]						alleviated the capsaicin-induced hypothermia	caused a significant increase in body temperature	
O=C(NC(C(=O)N1CCN(c2cccc(C(F)(F)F)c2)CC1)c1ccccc1)c1cccc(Cl)c1 (centres unmarked) [Compound 5, 3-Chloro-N-(2-oxo-1-phenyl-2-(4-(3-(trifluoromethyl)phenyl)piperazin-1-yl)ethyl) Benzamide]	151.7 to 152.4 °C	3.8%	0%	50%	50%			
O=C(NC(C(=O)N1CCN(c2cccc(C(F)(F)F)c2)CC1)c1ccccc1)c1ccc(C(F)(F)F)cc1 (centres unmarked) [Compound 9, N-(2-Oxo-1-phenyl-2-(4-(3-(trifluoromethyl)phenyl)piperazin-1-yl)ethyl)-4-(trifluoromethyl) Benzamide]	103.4 to 104.2 °C	6.2%	0%		0%			
O=C(NC(C(=O)N1CCN(c2cccc(C(F)(F)F)c2)CC1)c1ccccc1)c1cc(C(F)(F)F)ccn1 (centres unmarked) [Compound 11, N-(2-Oxo-1-phenyl-2-(4-(3-(trifluoromethyl)phenyl)piperazin-1-yl)ethyl)-4-(trifluoromethyl)picolinamide]	101.2 to 102.4 °C	-4.2%	0%		50%			
CC(=O)NC(C(=O)NC1CCN(c2ccccc2)C1)c1ccccc1 (centres unmarked) [Compound 21, 2-Acetamido-2-phenyl-N-(1-phenylpyrrolidin-3-yl)acetamide]	189.7 to 190.5 °C	4.2%	0%		0%			
Cn1c(=O)c2c(ncn2C)n(C)c1=O [caffeine, reference compound]								3.46 × 10^–6 cm/s

Now from value to molecule, other results behind:

melting point	inhibition at 100 µM (TRPV1 (VR1) (h))	SMILES	responders at 100 mg/kg [1]	responders at 100 mg/kg [2, 4]	responders at 100 mg/kg [2, 5]	effect on capsaicin-induced hypothermia (body temperature, mice; 20 mg/kg with capsaicin 5 mg/kg i.p., p < 0.0001 at 15 and 30 min)	effect on body temperature, administered alone (body temperature, mice; 20 mg/kg, 15 min after injection, p < 0.05)	permeability coefficient (Pe) [3]
109.8 to 110.6 °C		CC(=O)N[C@H](C(=O)N1CCN(c2cccc(C(F)(F)F)c2)CC1)c1ccccc1 [(S)-31, (S)-N-(2-Oxo-1-phenyl-2-(4-(3-(trifluoromethyl)phenyl)piperazin-1-yl)ethyl)acetamide]	25%	50%	50%			
140.9 to 141.2 °C	11.4%	O=C(NC(C(=O)N1CCN(c2cccc(C(F)(F)F)c2)CC1)c1ccccc1)c1ccccc1 (centres unmarked) [Compound 3, N-(2-Oxo-1-phenyl-2-(4-(3-(trifluoromethyl)phenyl)piperazin-1-yl)ethyl)benzamide]	0%	50%	50%			
134.8 to 135.9 °C	14.4%	O=C(NC(C(=O)N1CCN(c2cccc(C(F)(F)F)c2)CC1)c1ccccc1)c1ccccc1Cl (centres unmarked) [Compound 4, 2-Chloro-N-(2-oxo-1-phenyl-2-(4-(3-(trifluoromethyl)phenyl)piperazin-1-yl)ethyl) Benzamide]	0%		0%			
165.2 to 166.7 °C	6.8%	O=C(NC(C(=O)N1CCN(c2cccc(C(F)(F)F)c2)CC1)c1ccccc1)c1ccc(Cl)cc1 (centres unmarked) [Compound 6, 4-Chloro-N-(2-oxo-1-phenyl-2-(4-(3-(trifluoromethyl)phenyl)piperazin-1-yl)ethyl) Benzamide]	0%	25%	25%			
165.2 to 166.7 °C	-2.6%	O=C(NC(C(=O)N1CCN(c2cccc(C(F)(F)F)c2)CC1)c1ccccc1)c1ccccc1C(F)(F)F (centres unmarked) [Compound 7, N-(2-Oxo-1-phenyl-2-(4-(3-(trifluoromethyl)phenyl)piperazin-1-yl)ethyl)-2 (trifluoromethyl)benzamide]	0%		0%			
143.2 to 144.1 °C	-6.1%	O=C(NC(C(=O)N1CCN(c2cccc(C(F)(F)F)c2)CC1)c1ccccc1)c1cccc(C(F)(F)F)c1 (centres unmarked) [Compound 8, N-(2-Oxo-1-phenyl-2-(4-(3-(trifluoromethyl)phenyl)piperazin-1-yl)ethyl)-3-(trifluoromethyl)benzamide]	0%		0%			
	-3.5%	O=C(NC(C(=O)N1CCN(c2cccc(C(F)(F)F)c2)CC1)c1ccccc1)c1ncccc1C(F)(F)F (centres unmarked) [Compound 10, N-(2-Oxo-1-phenyl-2-(4-(3-(trifluoromethyl)phenyl)piperazin-1-yl)ethyl)-3-(trifluoromethyl)picolinamide]	0%		50%			
146.5 to 147.2 °C	-1.2%	O=C(NC(C(=O)N1CCN(c2cccc(C(F)(F)F)c2)CC1)c1ccccc1)c1ccc(C(F)(F)F)cn1 (centres unmarked) [Compound 12, N-(2-Oxo-1-phenyl-2-(4-(3-(trifluoromethyl)phenyl)piperazin-1-yl)ethyl)-5-(trifluoromethyl)picolinamide]	0%		50%			
203.7 to 204.4 °C	-8.4%	CC(=O)NC(C(=O)NC1CCN(c2cccc(C(F)(F)F)c2)C1)c1ccccc1 (centres unmarked) [Compound 22, 2-Acetamido-2-phenyl-N-(1-(3-(trifluoromethyl)phenyl)pyrrolidin-3-yl)acetamide]	0%	50%	50%			
173.1 to 174.2 °C	-2.7%	CC(=O)NC(C(=O)NC1CCN(c2cccc(OC(F)(F)F)c2)C1)c1ccccc1 (centres unmarked) [Compound 23, 2-Acetamido-2-phenyl-N-(1-(3-(trifluoromethoxy)phenyl)pyrrolidin-3-yl)acetamide]	0%	50%	50%			
168.8 to 169.7 °C	1.3%	CC(=O)NC(C(=O)NC1CCN(c2cccc(SC(F)(F)F)c2)C1)c1ccccc1 (centres unmarked) [Compound 24, 2-Acetamido-2-phenyl-N-(1-(3-((trifluoromethyl)thio)phenyl)pyrrolidin-3-yl)acetamide]	0%	25%	25%			
